Data taken from US6362369B1, “Phthalic acid diamide derivatives fluorine-containing aniline compounds as starting material, agricultural and horticultural insecticides, and a method for application of the insecticides” (Nihon Nohyaku Co., Ltd., priority 1997, dated 2002).

Assays:
Type in all cases: in vivo
[1] = tested on: rice leafroller (Cnaphalocrocis medinalis); assay: Insecticidal effect on rice leafroller (Test Example 3); conditions: 500 ppm, 25° C., humidity 70%; for Insecticidal effect, Test Example 3: rice lamina immersed; for Insecticidal effect, Test Example 3 / Insecticidal effect on rice leafroller (Test Example 3), judged grade: four days after inoculation; for Insecticidal effect on rice leafroller (Test Example 3), judged grade / Insecticidal effect (Test Example 3), judged from mortality: rice lamina dip; for Insecticidal effect on rice leafroller (Test Example 3), judged grade: third-instar larvae; for Insecticidal effect (Test Example 3), judged from mortality: 4 days after inoculation
In short: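 Groups of 10 third-instar larvae, in triplicate, are placed on air-dried lamina resting on wet filter paper. Incubation runs four days at 25° C with 70% humidity before survivors and dead are tallied.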

[2] = tested on: common cutworm (Spodoptera Litura); assay: Insecticidal effect on common cutworm (Test Example 2); conditions: 500 ppm, 25° C.; for Insecticidal effect, Test Example 2: cabbage leaf immersed; for Insecticidal effect, Test Example 2 / Insecticidal effect on common cutworm (Test Example 2), judged grade: eight days after inoculation; for Insecticidal effect on common cutworm (Test Example 2), judged grade / Insecticidal effect (Test Example 2), judged from mortality: cabbage leaf dip; for Insecticidal effect on common cutworm (Test Example 2), judged grade: second-instar larvae; for Insecticidal effect (Test Example 2), judged from mortality: 8 days after inoculation
In short: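 After the treated material air-dries, it goes into a dish, second-instar larvae are added, and the dish is closed. Incubation runs at 25° C. On day eight, dead and living larvae are scored, and the calculated mortality is rated on an effect scale.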

[3] = tested on: diamondback moth (Plutella xylostella); assay: Insecticidal effect on diamondback moth (Test Example 1); conditions: for Insecticidal effect, Test Example 1 / Insecticidal effect (Test Example 1), judged from mortality: diamondback moth; for Insecticidal effect (Test Example 1), judged from mortality: judged by the criterion of Test Example 1
In short: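 Read-out was mortality from hatched-insect counts taken 6 days after the egg-bearing cabbage seedling was immersed, graded by set criteria. Seedlings were air-dried and kept at 25° C after treatment. Groups of 10 insects, in triplicate.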

[4] = rice leafroller third-instar larvae
[5] = common cutworm second-instar larvae
[6] = mortality judged by criterion of Test Example 1
[7] = third-instar larvae of rice leafroller
[8] = second-instar larvae of common cutworm
[9] = judged by the mortality criterion of Test Example 1

C#CCNC(=O)c1c(I)cccc1C(=O)Nc1ccc(C(F)(F)C(F)(F)F)cc1C [compound 989]
Insecticidal effect, Test Example 3 [1, 4]: A (100)
Insecticidal effect, Test Example 2 [2, 5]: A (100)
Insecticidal effect, Test Example 1 [3, 6]: A (100)

COc1cccc(C(=O)Nc2ccc(Br)cc2C)c1C(=O)NC(C)C [compound 768]
Insecticidal effect on rice leafroller (Test Example 3), judged grade [1]: A (100)
Insecticidal effect on common cutworm (Test Example 2), judged grade [2]: B (99-90)
Insecticidal effect on diamondback moth (Test Example 1), judged grade ([3]; mortality judged according to the criterion shown in Test Example 1): A (100)

Cc1cc(OC(F)(F)C(F)(Br)C(F)(F)F)ccc1NC(=O)c1cccc(Cl)c1C(=O)NC(C)C (stereo not drawn) [compound 148]
Insecticidal effect, Test Example 3 [1, 7]: A (100)
Insecticidal effect, Test Example 2 [2, 8]: A (100)
Insecticidal effect, Test Example 1 [3, 9]: A (100)

CC(C)NC(=O)c1c(Cl)cccc1C(=O)Nc1ccc2c(c1Cl)OC(F)(F)C(F)(F)O2 [compound 1642]
Insecticidal effect (Test Example 3), judged from mortality [1, 7]: A (100)
Insecticidal effect (Test Example 2), judged from mortality [2, 8]: A (100)
Insecticidal effect (Test Example 1), judged from mortality [3]: A (100)

Cc1cc(C(F)(F)C(F)(F)F)ccc1NC(=O)c1cccc(Cl)c1C(=O)N(C)Cc1ccccc1 [compound 1406]
Insecticidal effect, Test Example 3 [1, 4]: A (100)
Insecticidal effect, Test Example 2 [2, 5]: A (100)
Insecticidal effect, Test Example 1 [3, 6]: A (100)

Cc1cc(OC(F)(F)C(F)Cl)ccc1NC(=O)c1cccc(Br)c1C(=O)NC(C)C (stereo not drawn) [compound 292]
Insecticidal effect, Test Example 3 [1, 7]: A (100)
Insecticidal effect, Test Example 2 [2, 8]: A (100)
Insecticidal effect, Test Example 1 [3, 9]: A (100)

Cc1cc(C(F)(F)C(F)(F)F)ccc1NC(=O)c1cccc(Cl)c1C(=O)NC(C)(C)C#Cc1c(Cl)cccc1Cl [compound 1586]
Insecticidal effect (Test Example 3), judged from mortality [1, 7]: A (100)
Insecticidal effect (Test Example 2), judged from mortality [2, 8]: C (89-80)
Insecticidal effect (Test Example 1), judged from mortality [3]: A (100)

Cc1cc(C(F)(F)C(F)(F)F)c(Cl)cc1NC(=O)c1cccc(I)c1C(=O)NC(C)C [compound 1653]
Insecticidal effect (Test Example 3), judged from mortality [1, 7]: A (100)
Insecticidal effect (Test Example 2), judged from mortality [2, 8]: A (100)
Insecticidal effect (Test Example 1), judged from mortality [3]: A (100)

CCN(CC)C(=O)c1c(Cl)cccc1C(=O)Nc1ccc(Cl)cc1C [compound 1542]
Insecticidal effect (Test Example 3), judged from mortality [1, 7]: A (100)
Insecticidal effect (Test Example 2), judged from mortality [2, 8]: D (79-50)
Insecticidal effect (Test Example 1), judged from mortality [3]: A (100)

CC(C)NC(=O)c1c(I)cccc1C(=O)Nc1ccc(OC(F)F)c(OC(F)F)c1 [compound 385]
Insecticidal effect, Test Example 3 [1, 7]: A (100)
Insecticidal effect, Test Example 2 [2, 8]: B (99-90)
Insecticidal effect, Test Example 1 [3, 9]: A (100)

CCc1cc(Cl)ccc1NC(=O)c1cccc(Br)c1C(=O)NC(C)C [compound 271]
Insecticidal effect, Test Example 3 [1, 7]: A (100)
Insecticidal effect, Test Example 2 [2, 8]: A (100)
Insecticidal effect, Test Example 1 [3, 9]: A (100)

Cc1cc(OC(F)(F)Br)ccc1NC(=O)c1cccc(Br)c1C(=O)NC(C)C [compound 290]
Insecticidal effect, Test Example 3 [1, 7]: A (100)
Insecticidal effect, Test Example 2 [2, 8]: A (100)
Insecticidal effect, Test Example 1 [3, 9]: A (100)

Cc1cc(OC(F)(F)Br)ccc1NC(=O)c1ccccc1C(=O)NC(C)(C)C [compound 1049]
Insecticidal effect, Test Example 3 [1, 4]: A (100)
Insecticidal effect, Test Example 2 [2, 5]: A (100)
Insecticidal effect, Test Example 1 [3, 6]: A (100)

Cc1cc(OC(F)(F)C(F)(Cl)Cl)ccc1NC(=O)c1c(I)cccc1C(=O)NC(C)C [compound 445]
Insecticidal effect on rice leafroller (Test Example 3), judged grade [1]: A (100)
Insecticidal effect on common cutworm (Test Example 2), judged grade [2]: B (99-90)

Cc1cc(OC(F)(F)C(F)(Cl)Cl)ccc1NC(=O)c1c(Cl)cccc1C(=O)NC(C)C [compound 228]
Insecticidal effect, Test Example 3 [1, 7]: A (100)
Insecticidal effect, Test Example 2 [2, 8]: B (99-90)

Cc1cc(C(F)(F)C(F)(F)F)c(C)cc1NC(=O)c1cccc(I)c1C(=O)NC(C)(C)C [compound 1656]
Insecticidal effect (Test Example 3), judged from mortality [1, 7]: A (100)
Insecticidal effect (Test Example 2), judged from mortality [2, 8]: A (100)

Cc1ccc(NC(=O)c2cccc(Br)c2C(=O)NC(C)C)c(C)c1 [compound 264]
Insecticidal effect, Test Example 3 [1, 7]: A (100)
Insecticidal effect, Test Example 2 [2, 8]: D (79-50)

Cc1cc(OC(F)F)ccc1NC(=O)c1c(Cl)cccc1C(=O)NCc1ccccc1Cl [compound 1424]
Insecticidal effect, Test Example 3 [1, 4]: A (100)
Insecticidal effect, Test Example 2 [2, 5]: A (100)

CC(C)NC(=O)c1cccc(Cl)c1C(=O)Nc1ccc(C(F)(C(F)(F)F)C(F)(F)F)cc1Cl [compound 231]
Insecticidal effect, Test Example 3 [1, 7]: A (100)
Insecticidal effect, Test Example 2 [2, 8]: B (99-90)
